Data: patent US8829026B2, “Sulfamoyl benzoic acid heterobicyclic derivatives as TRPM8 antagonists” (RaQualia Pharma Inc., priority 2010, dated 2014)
pIC50: −log10 of the molar value.

Target: T1, human TRPM8 (Homo sapiens, UniProt Q7Z2W7)
T1 construct: expressed in transfected cells
Experiment: Menthol-induced Ca2+ influx in HEK293 cells stably expressing human TRPM8
Type: cell-based
Settings: 30 microM menthol-induced Ca2+ influx, HEK293 cells stably expressing human TRPM8, 11-point dose-response
Method: Measurement of the Menthol-Induced Ca^2+ Influx in HEK293 Cells Stably Expressing Human TRPM8
A cell-based Ca^2+ influx assay using HEK293 cells stably expressing human TRPM8 was used to identify the activity of compounds.
HEK293 cells stably expressing human TRPM8 were grown in T175 flasks at 37° C. in a 5% CO2 humidified incubator to about 80% confluence. Media composition consisted of Dulbecco's Modified Eagle Medium (high glucose), 10% fetal calf serum (FCS), 100 units/ml Penicillin, 100 microg/ml Streptomycin and 600 microg/ml Geneticine. At 24 hours prior to assay, cells were seeded in poly-D-lysine coated 384-well plates (BD FALCON) at a density of 30,000 cells per well in culture medium and grown overnight in 5% CO2 at 37° C. On the assay day, growth media was removed and cells were loaded with 0.5 microM Fluo4-AM (Molecular Probes) and 0.005% Pluronic F-127 dissolved in assay buffer (Hank's balanced salt solution (HBSS), 19.4 mM HEPES pH7.4, 2.5 mM Probenecid) for 1 hour at room temperature. After washing with assay buffer, the cells were preincubated with various concentrations of the compounds for 5 min. The changes in intracellular calcium concentration by addition of 30 microM menthol were monitored by the cell imaging technology by Hamamatsu Photonics's Functional Drug Screening System (FDSS).
The IC50 values for compounds of the present invention were determined from 11-point dose-response studies. Curves were generated using the average of duplicate wells for each data point. Finally, the IC50 values are calculated with the best-fit dose curve determined by XLfit (ID Business Solutions Ltd.).

T1 sequence (Q7Z2W7 whole entry): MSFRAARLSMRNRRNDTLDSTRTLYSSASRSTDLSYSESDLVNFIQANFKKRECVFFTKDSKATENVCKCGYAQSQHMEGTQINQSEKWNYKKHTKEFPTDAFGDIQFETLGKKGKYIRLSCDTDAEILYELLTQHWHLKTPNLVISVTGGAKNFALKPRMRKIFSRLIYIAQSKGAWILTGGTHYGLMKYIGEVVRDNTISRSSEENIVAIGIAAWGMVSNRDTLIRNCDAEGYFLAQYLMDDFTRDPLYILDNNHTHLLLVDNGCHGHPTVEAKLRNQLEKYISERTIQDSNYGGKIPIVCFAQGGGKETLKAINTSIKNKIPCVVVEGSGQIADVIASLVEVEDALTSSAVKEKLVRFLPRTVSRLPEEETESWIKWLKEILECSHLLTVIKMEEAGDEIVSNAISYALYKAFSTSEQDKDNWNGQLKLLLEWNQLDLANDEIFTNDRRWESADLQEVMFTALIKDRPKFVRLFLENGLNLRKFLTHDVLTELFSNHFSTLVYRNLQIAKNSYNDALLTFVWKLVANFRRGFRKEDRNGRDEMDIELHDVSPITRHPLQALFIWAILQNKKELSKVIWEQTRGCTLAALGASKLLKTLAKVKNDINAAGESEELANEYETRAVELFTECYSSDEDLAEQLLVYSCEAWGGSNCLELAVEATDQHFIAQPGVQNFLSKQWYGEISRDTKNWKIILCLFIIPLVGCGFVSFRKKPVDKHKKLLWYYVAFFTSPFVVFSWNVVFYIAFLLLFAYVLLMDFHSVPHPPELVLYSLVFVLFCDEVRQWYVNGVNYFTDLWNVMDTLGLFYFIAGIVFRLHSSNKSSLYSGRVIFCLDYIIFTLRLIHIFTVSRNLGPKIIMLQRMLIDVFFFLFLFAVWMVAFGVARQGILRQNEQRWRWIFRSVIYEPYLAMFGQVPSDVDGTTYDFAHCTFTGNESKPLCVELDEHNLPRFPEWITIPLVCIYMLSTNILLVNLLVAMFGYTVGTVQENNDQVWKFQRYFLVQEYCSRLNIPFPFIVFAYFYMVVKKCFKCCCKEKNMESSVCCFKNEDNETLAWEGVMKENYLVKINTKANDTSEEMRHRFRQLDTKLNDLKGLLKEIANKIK

Structure (SMILES) | pIC50
Cc1cc(C(=O)O)ccc1S(=O)(=O)N(Cc1ccc2c(cnn2C2CC2)c1)c1ncc(Cl)cc1Cl [Example 34, 4-(N-((1-Cyclopropyl-1H-indazol-5-yl)methyl)-N-(3,5-dichloropyridin-2-yl)sulfamoyl)-3-methylbenzoic acid] | > 6.00
Cn1ccc2cc(CN(c3ncc(C(F)(F)F)cc3Cl)S(=O)(=O)c3ccc(C(=O)O)cc3Cl)cnc21 [Example 35, 3-Chloro-4-(N-(3-chloro-5-(trifluoromethyl)pyridin-2-yl)-N-((1-methyl-1H-pyrrolo[2,3-b]pyridin-5-yl)methyl)sulfamoyl)benzoic acid] | > 6.00
Cn1ccc2cc(CN(c3ncc(Cl)cc3Cl)S(=O)(=O)c3ccc(C(=O)O)cc3Cl)cnc21 [Example 36, 3-Chloro-4-(N-(3,5-dichloropyridin-2-yl)-N-((1-methyl-1H-pyrrolo[2,3-b]pyridin-5-yl)methyl)sulfamoyl)benzoic acid] | 5.00 to 6.00

Now from value to compound:

pIC50 | Structure (SMILES)
> 6.00 | Cn1ccc2cc(CN(c3ncc(C(F)(F)F)cc3Cl)S(=O)(=O)c3ccc(C(=O)O)cc3)cnc21 [Example 37, 4-(N-(3-Chloro-5-(trifluoromethyl)pyridin-2-yl)-N-((1-methyl-1H-pyrrolo[2,3-b]pyridin-5-yl)methyl)sulfamoyl)benzoic acid]
> 6.00 | O=C(O)c1ccc(S(=O)(=O)N(Cc2cnc3ccccc3c2)c2ncc(C(F)(F)F)cc2Cl)cc1 [Example 38, 4-(N-(3-Chloro-5-(trifluoromethyl)pyridin-2-yl)-N-(quinolin-3-ylmethyl)sulfamoyl)benzoic acid]
> 6.00 | O=C(O)c1ccc(S(=O)(=O)N(Cc2ccc3ncccc3c2)c2ncc(C(F)(F)F)cc2Cl)cc1 [Example 39, 4-(N-(3-Chloro-5-(trifluoromethyl)pyridin-2-yl)-N-(quinolin-6-ylmethyl)sulfamoyl)benzoic acid]
